{"source": "paper PMC7845544", "about": "(Frontiers in Pharmacology, 2021)", "key": {"mouse oocytes": {"test_system": "mouse oocytes", "assay": "Oocyte quality, IVF and embryo development in mice", "format": "in vivo", "procedure": "Developmental competence of oocytes was determined in mice, as described previously ([Sriraman et al., 2014]). Mice were superovulated with FSH or FSH + TOP5300. […] To measure nuclear status, oocytes were assessed for perivitelline space and first polar body extrusion by phase contrast inverted microscopy. Oocyte maturity was determined by presence of a polar body reflecting oocytes in metaphase-II (MII). Oocytes without a first polar body were assessed as metaphase-I (MI). After the evaluations, oocytes were incubated for 2 h in the media before use in IVF as described ([Sriraman et al., 2014]). Briefly, oocytes were placed in fertilization media (Research Fertilization Media, Cook Medical, Bloomington, IN, United States) under paraffin oil (Calbiochem, San Diego, CA, United States) and incubated at 37°C in 6% CO2, 5% O2 and 89% N2 for 5–6 h with spermatozoa. Spermatozoa were collected from the cauda epididymis of male C57BL/6J mice and were previously incubated for 1 h in fertilization media prior to use (Research Fertilization Media; Cook Medical, Bloomington, IN) for sperm capacitation. The putative zygotes were then washed and placed in 20 μL drops of culture media (Research Cleave Media; Cook Medical, Bloomington, IN, United States) in Petri dishes, or in 60 μL of culture media in Primo Vision microwell group culture dishes (Vitrolife, Gothenberg, Sweden) and checked for fertilization/cleavage the next morning. Embryos were then cultured in the incubator for an additional 3 days to the blastocyst stage and the blastocyst development rate was recorded."}, "beagle dogs": {"test_system": "beagle dogs", "assay": "Serum thyroid hormones in beagle dogs treated for 14 days", "format": "in vivo", "procedure": "Male and female beagle dogs were received from Beijing Marshall Biotechnology Co., Ltd (Beijing, China) and group housed at Covance (Shanghai, China), except for 5 h each day in stainless steel cages for study-related procedures. […] Blood samples (approximately 1.0 ml) were collected for thyroid hormone analysis on Days 0, prior to dosing, 24 h post dose (prior to second dose on Day 2) and once prior to dosing on Day 14. Blood was collected into serum separator tubes (without anticoagulant), allowed to clot at room temperature, and centrifuged for approximately 10 min in a refrigerated centrifuge at approximately at 3,500 g within 2 h of collection. Serum was harvested and placed in a freezer for subsequent thyroid hormone measurement."}, "[1]": {"details": "rec-hFSH + TOP5300, 30, 100 mg/kg"}, "[2]": {"details": "female dog, 30 mg/Kg, 0h predosing"}, "[3]": {"details": "female dog, 100 mg/Kg, 0h predosing"}, "[4]": {"details": "female dog, 1000 mg/Kg, 0h predosing"}, "[5]": {"details": "male dog, 30 mg/Kg, 0h predosing"}, "[6]": {"details": "male dog, 100 mg/Kg, 0h predosing"}, "[7]": {"details": "male dog, 1000 mg/Kg, 0h predosing"}}, "data": [{"molecule": "COc1cc2c(cc1-c1cnn(CCO)c1)-c1c(c(C(=O)N(C)C(C)(C)C)nn1-c1cc(Cl)cc(Cl)c1)CO2", "note": "[TOP5300]", "values": [{"measurement": "% of M2 oocytes", "setting": "mouse oocytes; 30 mg/kg with low dose FSH", "value": "comparable to FSH and PMSG"}, {"measurement": "M1/M2 oocytes relative to FSH and PMSG group", "setting": "mouse oocytes; 100 mg/kg", "value": "fewer mature oocytes (M2 oocytes) and more M1 oocytes"}, {"measurement": "fertilization rates vs rec-hFSH-treated mice", "setting": "mouse oocytes; [1]", "value": "no differences"}, {"measurement": "hatched blastocyst rates vs rec-hFSH-treated mice", "setting": "mouse oocytes; [1]", "value": "no differences"}, {"measurement": "TSH, free T3 or free T4 concentrations over the course of treatment", "setting": "beagle dogs; dog, 14 days", "value": "No significant difference"}, {"measurement": "Free T3, fold change over vehicle group", "setting": "beagle dogs; [2]", "value": 0.9, "unit": "fold"}, {"measurement": "Free T4, fold change over vehicle group", "setting": "beagle dogs; [2]", "value": 1.1, "unit": "fold"}, {"measurement": "TSH, fold change over vehicle group", "setting": "beagle dogs; [2]", "value": 1.2, "unit": "fold"}, {"measurement": "Free T3, fold change over vehicle group", "setting": "beagle dogs; female dog, 30 mg/Kg, 24h", "value": 0.8, "unit": "fold"}, {"measurement": "Free T4, fold change over vehicle group", "setting": "beagle dogs; female dog, 30 mg/Kg, 24h", "value": 1.1, "unit": "fold"}, {"measurement": "TSH, fold change over vehicle group", "setting": "beagle dogs; female dog, 30 mg/Kg, 24h", "value": 0.9, "unit": "fold"}, {"measurement": "Free T3, fold change over vehicle group", "setting": "beagle dogs; female dog, 30 mg/Kg, Day 14", "value": 1.0, "unit": "fold"}, {"measurement": "Free T4, fold change over vehicle group", "setting": "beagle dogs; female dog, 30 mg/Kg, Day 14", "value": 0.8, "unit": "fold"}, {"measurement": "TSH, fold change over vehicle group", "setting": "beagle dogs; female dog, 30 mg/Kg, Day 14", "value": 1.1, "unit": "fold"}, {"measurement": "Free T3, fold change over vehicle group", "setting": "beagle dogs; [3]", "value": 1.0, "unit": "fold"}, {"measurement": "Free T4, fold change over vehicle group", "setting": "beagle dogs; [3]", "value": 1.2, "unit": "fold"}, {"measurement": "TSH, fold change over vehicle group", "setting": "beagle dogs; [3]", "value": 1.3, "unit": "fold"}, {"measurement": "Free T3, fold change over vehicle group", "setting": "beagle dogs; female dog, 100 mg/Kg, 24h", "value": 0.9, "unit": "fold"}, {"measurement": "Free T4, fold change over vehicle group", "setting": "beagle dogs; female dog, 100 mg/Kg, 24h", "value": 1.1, "unit": "fold"}, {"measurement": "TSH, fold change over vehicle group", "setting": "beagle dogs; female dog, 100 mg/Kg, 24h", "value": 1.0, "unit": "fold"}, {"measurement": "Free T3, fold change over vehicle group", "setting": "beagle dogs; female dog, 100 mg/Kg, Day 14", "value": 1.1, "unit": "fold"}, {"measurement": "Free T4, fold change over vehicle group", "setting": "beagle dogs; female dog, 100 mg/Kg, Day 14", "value": 1.1, "unit": "fold"}, {"measurement": "TSH, fold change over vehicle group", "setting": "beagle dogs; female dog, 100 mg/Kg, Day 14", "value": 1.1, "unit": "fold"}, {"measurement": "Free T3, fold change over vehicle group", "setting": "beagle dogs; [4]", "value": 1.1, "unit": "fold"}, {"measurement": "Free T4, fold change over vehicle group", "setting": "beagle dogs; [4]", "value": 1.0, "unit": "fold"}, {"measurement": "TSH, fold change over vehicle group", "setting": "beagle dogs; [4]", "value": 1.2, "unit": "fold"}, {"measurement": "Free T3, fold change over vehicle group", "setting": "beagle dogs; female dog, 1000 mg/Kg, 24h", "value": 0.9, "unit": "fold"}, {"measurement": "Free T4, fold change over vehicle group", "setting": "beagle dogs; female dog, 1000 mg/Kg, 24h", "value": 0.9, "unit": "fold"}, {"measurement": "TSH, fold change over vehicle group", "setting": "beagle dogs; female dog, 1000 mg/Kg, 24h", "value": 0.8, "unit": "fold"}, {"measurement": "Free T3, fold change over vehicle group", "setting": "beagle dogs; female dog, 1000 mg/Kg, Day 14", "value": 1.2, "unit": "fold"}, {"measurement": "Free T4, fold change over vehicle group", "setting": "beagle dogs; female dog, 1000 mg/Kg, Day 14", "value": 0.9, "unit": "fold"}, {"measurement": "TSH, fold change over vehicle group", "setting": "beagle dogs; female dog, 1000 mg/Kg, Day 14", "value": 0.8, "unit": "fold"}, {"measurement": "Free T3, fold change over vehicle group", "setting": "beagle dogs; [5]", "value": 1.3, "unit": "fold"}, {"measurement": "Free T4, fold change over vehicle group", "setting": "beagle dogs; [5]", "value": 1.0, "unit": "fold"}, {"measurement": "TSH, fold change over vehicle group", "setting": "beagle dogs; [5]", "value": 0.8, "unit": "fold"}, {"measurement": "Free T3, fold change over vehicle group", "setting": "beagle dogs; male dog, 30 mg/Kg, 24h", "value": 1.3, "unit": "fold"}, {"measurement": "Free T4, fold change over vehicle group", "setting": "beagle dogs; male dog, 30 mg/Kg, 24h", "value": 1.0, "unit": "fold"}, {"measurement": "TSH, fold change over vehicle group", "setting": "beagle dogs; male dog, 30 mg/Kg, 24h", "value": 0.9, "unit": "fold"}, {"measurement": "Free T3, fold change over vehicle group", "setting": "beagle dogs; male dog, 30 mg/Kg, Day 14", "value": 1.3, "unit": "fold"}, {"measurement": "Free T4, fold change over vehicle group", "setting": "beagle dogs; male dog, 30 mg/Kg, Day 14", "value": 1.0, "unit": "fold"}, {"measurement": "TSH, fold change over vehicle group", "setting": "beagle dogs; male dog, 30 mg/Kg, Day 14", "value": 1.0, "unit": "fold"}, {"measurement": "Free T3, fold change over vehicle group", "setting": "beagle dogs; [6]", "value": 1.1, "unit": "fold"}, {"measurement": "Free T4, fold change over vehicle group", "setting": "beagle dogs; [6]", "value": 0.9, "unit": "fold"}, {"measurement": "TSH, fold change over vehicle group", "setting": "beagle dogs; [6]", "value": 0.8, "unit": "fold"}, {"measurement": "Free T3, fold change over vehicle group", "setting": "beagle dogs; male dog, 100 mg/Kg, 24h", "value": 1.1, "unit": "fold"}, {"measurement": "Free T4, fold change over vehicle group", "setting": "beagle dogs; male dog, 100 mg/Kg, 24h", "value": 0.8, "unit": "fold"}, {"measurement": "TSH, fold change over vehicle group", "setting": "beagle dogs; male dog, 100 mg/Kg, 24h", "value": 0.9, "unit": "fold"}, {"measurement": "Free T3, fold change over vehicle group", "setting": "beagle dogs; male dog, 100 mg/Kg, Day 14", "value": 1.1, "unit": "fold"}, {"measurement": "Free T4, fold change over vehicle group", "setting": "beagle dogs; male dog, 100 mg/Kg, Day 14", "value": 0.9, "unit": "fold"}, {"measurement": "TSH, fold change over vehicle group", "setting": "beagle dogs; male dog, 100 mg/Kg, Day 14", "value": 1.0, "unit": "fold"}, {"measurement": "Free T3, fold change over vehicle group", "setting": "beagle dogs; [7]", "value": 1.0, "unit": "fold"}, {"measurement": "Free T4, fold change over vehicle group", "setting": "beagle dogs; [7]", "value": 0.9, "unit": "fold"}, {"measurement": "TSH, fold change over vehicle group", "setting": "beagle dogs; [7]", "value": 0.7, "unit": "fold"}, {"measurement": "Free T3, fold change over vehicle group", "setting": "beagle dogs; male dog, 1000 mg/Kg, 24h", "value": 0.9, "unit": "fold"}, {"measurement": "Free T4, fold change over vehicle group", "setting": "beagle dogs; male dog, 1000 mg/Kg, 24h", "value": 0.9, "unit": "fold"}, {"measurement": "TSH, fold change over vehicle group", "setting": "beagle dogs; male dog, 1000 mg/Kg, 24h", "value": 0.9, "unit": "fold"}, {"measurement": "Free T3, fold change over vehicle group", "setting": "beagle dogs; male dog, 1000 mg/Kg, Day 14", "value": 1.0, "unit": "fold"}, {"measurement": "Free T4, fold change over vehicle group", "setting": "beagle dogs; male dog, 1000 mg/Kg, Day 14", "value": 1.0, "unit": "fold"}, {"measurement": "TSH, fold change over vehicle group", "setting": "beagle dogs; male dog, 1000 mg/Kg, Day 14", "value": 0.8, "unit": "fold"}]}]}
